The values below come from patent publication US9695155B2, “Herbicidal substituted pyrimidinyloxy benzene compounds” (E. I. DU PONT DE NEMOURS AND COMPANY, priority 2013, dated 2017).

What all share (experiment): Test E postemergence
One experiment deals with hairy beggarticks. In kind it is in vivo, Bidens pilosa. The method, boiled down:
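Compound in a non-phytotoxic solvent mixture with surfactant was applied preemergence to seeds in silt loam soil, or postemergence to plants 2 to 18 cm tall grown in peat-based potting medium. Plants were kept in a greenhouse for 14 to 21 days, then rated visually against untreated controls on a 0 (no effect) to 100 (complete control) scale.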

The subject of a further experiment is barnyardgrass. In kind it is in vivo, Echinochloa crus-galli. The source says: (§1) Seeds of plant species selected from corn (Zea mays), soybean (Glycine max), velvetleaf (Abutilon theophrasti), lambsquarters (Chenopodium album), wild poinsettia (Euphorbia heterophylla), palmer pigweed (Amaranthus palmeri), waterhemp (common waterhemp, Amaranthus rudis), surinam grass (Brachiaria decumbens), large (Lg) crabgrass (Digitaria sanguinalis), Brazilian crabgrass (Digitaria horizontalis), fall panicum (Panicum dichotomiflorum), giant foxtail (Setaria faberii), green foxtail (Setaria viridis), goosegrass (Eleusine indica), johnsongrass (Sorghum halepense), ragweed (common ragweed, Ambrosia elatior), barnyardgrass (Echinochloa crus-galli), sandbur (southern sandbur, Cenchrus echinatus), arrowleaf sida (Sida rhombifolia), Italian ryegrass (Lolium multiflorum), dayflower (Virginia (VA) dayflower, Commelina virginica), field bindweed (Convolvulus arvensis), morningglory (Ipomoea coccinea), nightshade (eastern black nightshade, Solanum ptycanthum), kochia (Kochia scoparia), yellow nutsedge (Cyperus esculentus), cocklebur (common cocklebur, Xanthium strumarium), smartweed (ladysthumb smartweed, and hairy beggarticks (Bidens pilosa), were planted into a silt loam soil and treated preemergence with test chemicals formulated in a non-phytotoxic solvent mixture which included a surfactant.
(§2) At the same time, plants from these crop and weed species and also horseweed (Canada horseweed, Conyza canadensis), waterhemp_RES1, (ALS & Triazine resistant common waterhemp, Amaranthus rudis), and waterhemp_RES2, (ALS & HPPD resistant common waterhemp, Amaranthus rudis) were planted in pots containing Redi-Earth® planting medium (Scotts Company, 14111 Scottslawn Road, Marysville, Ohio 43041) comprising spaghnum peat moss, vermiculite, wetting agent and starter nutrients were treated with postemergence applications of test chemicals formulated in the same manner. Plants ranged in height from 2 to 18 cm for postemergence treatments (1- to 4-leaf stage). Treated plants and controls were maintained in a greenhouse for 14 to 21 days, after which time all species were compared to controls and visually evaluated. Plant response ratings, summarized in Table E, are based on a scale of 0 to 100 where 0 is no effect and 100 is complete control. A dash (-) response means no test result.

The subject of another experiment is field bindweed. The class given is in vivo, Convolvulus arvensis.
Text: as §1, §2

Setting [1] is: Postemergence, 31 g ai/ha, scale 0 to 100.
Where [2] appears, read: Postemergence, 62 g ai/ha, scale 0 to 100.
Setting [3] is: Postemergence, 125 g ai/ha, scale 0 to 100.
Where [4] appears, read: postemergence, 8 g ai/ha, scale 0 to 100, 0 no effect, 100 complete control.
Setting [5] is: postemergence, 16 g ai/ha, scale 0 to 100, 0 no effect, 100 complete control.

As for `Clc1cnc(Oc2cccc(Br)c2-n2cc(Br)cn2)nc1` [Compound 65], the “Plant response rating, Beggarticks” value in the experiment with hairy beggarticks (setting [1]) came out at 40; in the experiment with hairy beggarticks (setting [2]), 50; in the experiment on hairy beggarticks (setting [3]) it was 50; in the experiment on hairy beggarticks (setting [4]), 20; with hairy beggarticks (setting [5]), 35. Moreover, the “Plant response rating, Barnyardgrass” value with barnyardgrass (setting [1]), with barnyardgrass (setting [2]), with barnyardgrass (setting [3]), in the experiment with barnyardgrass (setting [4]) and with barnyardgrass (setting [5]) was 0 throughout. The “Plant response rating, Field Bindweed” value in the experiment with field bindweed (setting [1]) worked out at 20; in the experiment with field bindweed (setting [2]), 40; with field bindweed (setting [3]) it was 40; with field bindweed (setting [4]) it was 0; with field bindweed (setting [5]) it was 10.

Take `Fc1cnc(Oc2ccccc2-n2cc(Br)cn2)nc1` [Compound 10, 2-[2-(4-bromo-1H-pyrazol-1-yl)phenoxy]-5-fluoropyrimidine]: the pest or weed control at 31 g/ha worked out at 30% in the experiment with hairy beggarticks (Bidens pilosa, post-emergence, Postemergence, 31 g ai/ha, scale 0 to 100, read-out: Plant response rating, Beggarticks); 0% with barnyardgrass (Echinochloa crus-galli, post-emergence, Postemergence, 31 g ai/ha, scale 0 to 100, read-out: Plant response rating, Barnyardgrass); 30% with field bindweed (Convolvulus arvensis, post-emergence, Postemergence, 31 g ai/ha, scale 0 to 100, read-out: Plant response rating, Field Bindweed). Further, the pest or weed control at 62 g/ha in the experiment on hairy beggarticks (Bidens pilosa, post-emergence, Postemergence, 62 g ai/ha, scale 0 to 100, read-out: Plant response rating, Beggarticks) stood at 40%; in the experiment with barnyardgrass (Echinochloa crus-galli, post-emergence, Postemergence, 62 g ai/ha, scale 0 to 100, read-out: Plant response rating, Barnyardgrass) it was 0%; in the experiment on field bindweed (Convolvulus arvensis, post-emergence, Postemergence, 62 g ai/ha, scale 0 to 100, read-out: Plant response rating, Field Bindweed), 30%. Further, the pest or weed control at 125 g/ha stood at 50% with hairy beggarticks (Bidens pilosa, post-emergence, Postemergence, 125 g ai/ha, scale 0 to 100, read-out: Plant response rating, Beggarticks); 0% in the experiment with barnyardgrass (Echinochloa crus-galli, post-emergence, Postemergence, 125 g ai/ha, scale 0 to 100, read-out: Plant response rating, Barnyardgrass); 40% with field bindweed (Convolvulus arvensis, post-emergence, Postemergence, 125 g ai/ha, scale 0 to 100, read-out: Plant response rating, Field Bindweed). The pest or weed control at 250 g/ha is 80% in the experiment on hairy beggarticks (Bidens pilosa, post-emergence, Postemergence, 250 g ai/ha, scale 0 to 100, read-out: Plant response rating, Beggarticks); 0% in the experiment on barnyardgrass (Echinochloa crus-galli, post-emergence, Postemergence, 250 g ai/ha, scale 0 to 100, read-out: Plant response rating, Barnyardgrass); 50% in the experiment with field bindweed (Convolvulus arvensis, post-emergence, Postemergence, 250 g ai/ha, scale 0 to 100, read-out: Plant response rating, Field Bindweed). Besides, the pest or weed control at 16 g/ha worked out at 10% in the experiment on hairy beggarticks (Bidens pilosa, post-emergence, postemergence, 16 g ai/ha, scale 0 to 100, 0 no effect, 100 complete control, read-out: Plant response rating, Beggarticks); 0% in the experiment on barnyardgrass (Echinochloa crus-galli, post-emergence, postemergence, 16 g ai/ha, scale 0 to 100, 0 no effect, 100 complete control, read-out: Plant response rating, Barnyardgrass); 15% with field bindweed (Convolvulus arvensis, post-emergence, postemergence, 16 g ai/ha, scale 0 to 100, 0 no effect, 100 complete control, read-out: Plant response rating, Field Bindweed).
